Results as given in the NIST ThermoML archive (doi:10.1016/j.jct.2015.09.020).

Test: mn = molality of the nth substance listed, in mol/kg
Conditions: 101.3 kPa, Liquid

Cl.NCC(=O)O [glycine hydrochloride] + O
Conditions	speed of sound [m/s]
278.15 K, Frequency=2 MHz, Linear variable-path acoustic interferometer, m1 = 0.0508	1430.8
278.15 K, Frequency=2 MHz, Linear variable-path acoustic interferometer, m1 = 0.0811	1433.6
278.15 K, Frequency=2 MHz, Linear variable-path acoustic interferometer, m1 = 0.1008	1435
278.15 K, Frequency=2 MHz, Linear variable-path acoustic interferometer, m1 = 0.1202	1436.2
278.15 K, Frequency=2 MHz, Linear variable-path acoustic interferometer, m1 = 0.1499	1438.3
278.15 K, Frequency=2 MHz, Linear variable-path acoustic interferometer, m1 = 0.1801	1441.1
278.15 K, Frequency=2 MHz, Linear variable-path acoustic interferometer, m1 = 0.2112	1443.2
278.15 K, Frequency=2 MHz, Linear variable-path acoustic interferometer, m1 = 0.2325	1445.3
278.15 K, Frequency=2 MHz, Linear variable-path acoustic interferometer, m1 = 0.2472	1445.9
278.15 K, Frequency=2 MHz, Linear variable-path acoustic interferometer, m1 = 0.2732	1448
278.15 K, Frequency=2 MHz, Linear variable-path acoustic interferometer, m1 = 0.2995	1449.7
278.15 K, Frequency=2 MHz, Linear variable-path acoustic interferometer, m1 = 0.3208	1451.3
278.15 K, Frequency=2 MHz, Linear variable-path acoustic interferometer, m1 = 0.3529	1454.1
288.15 K, Frequency=3 MHz, Sing-around technique in a fixed-path interferometer, m1 = 0.05	1469.8
288.15 K, Frequency=3 MHz, Sing-around technique in a fixed-path interferometer, m1 = 0.0802	1471.7
288.15 K, Frequency=3 MHz, Sing-around technique in a fixed-path interferometer, m1 = 0.1002	1473.1
288.15 K, Frequency=3 MHz, Sing-around technique in a fixed-path interferometer, m1 = 0.1216	1474.5
288.15 K, Frequency=3 MHz, Sing-around technique in a fixed-path interferometer, m1 = 0.1506	1476.6
288.15 K, Frequency=3 MHz, Sing-around technique in a fixed-path interferometer, m1 = 0.1821	1479
288.15 K, Frequency=3 MHz, Sing-around technique in a fixed-path interferometer, m1 = 0.21	1480.8
288.15 K, Frequency=3 MHz, Sing-around technique in a fixed-path interferometer, m1 = 0.2318	1482.2
288.15 K, Frequency=3 MHz, Sing-around technique in a fixed-path interferometer, m1 = 0.2508	1483.4
288.15 K, Frequency=3 MHz, Sing-around technique in a fixed-path interferometer, m1 = 0.2723	1484.8
288.15 K, Frequency=3 MHz, Sing-around technique in a fixed-path interferometer, m1 = 0.3012	1486.4
288.15 K, Frequency=3 MHz, Sing-around technique in a fixed-path interferometer, m1 = 0.3205	1488.1
288.15 K, Frequency=3 MHz, Sing-around technique in a fixed-path interferometer, m1 = 0.3534	1489.9
298.15 K, Frequency=3 MHz, Sing-around technique in a fixed-path interferometer, m1 = 0.0515	1500
298.15 K, Frequency=3 MHz, Sing-around technique in a fixed-path interferometer, m1 = 0.0839	1502
298.15 K, Frequency=3 MHz, Sing-around technique in a fixed-path interferometer, m1 = 0.1035	1503.3
298.15 K, Frequency=3 MHz, Sing-around technique in a fixed-path interferometer, m1 = 0.1305	1504.9
298.15 K, Frequency=3 MHz, Sing-around technique in a fixed-path interferometer, m1 = 0.1453	1505.9
298.15 K, Frequency=3 MHz, Sing-around technique in a fixed-path interferometer, m1 = 0.185	1508.2
298.15 K, Frequency=3 MHz, Sing-around technique in a fixed-path interferometer, m1 = 0.2073	1509.4
298.15 K, Frequency=3 MHz, Sing-around technique in a fixed-path interferometer, m1 = 0.2401	1511.3
298.15 K, Frequency=3 MHz, Sing-around technique in a fixed-path interferometer, m1 = 0.2727	1513.2
298.15 K, Frequency=3 MHz, Sing-around technique in a fixed-path interferometer, m1 = 0.3029	1514.9
298.15 K, Frequency=3 MHz, Sing-around technique in a fixed-path interferometer, m1 = 0.3177	1515.8
298.15 K, Frequency=3 MHz, Sing-around technique in a fixed-path interferometer, m1 = 0.3535	1517.9

Conditions	mass density [kg/m3]
278.15 K, Pycnometric method, m1 = 0.0508	1002.4
278.15 K, Pycnometric method, m1 = 0.0811	1003.61
278.15 K, Pycnometric method, m1 = 0.1008	1004.87
278.15 K, Pycnometric method, m1 = 0.1202	1005.41
278.15 K, Pycnometric method, m1 = 0.1499	1006.88
278.15 K, Pycnometric method, m1 = 0.1801	1008.05
278.15 K, Pycnometric method, m1 = 0.2112	1009.37
278.15 K, Pycnometric method, m1 = 0.2325	1010.42
278.15 K, Pycnometric method, m1 = 0.2472	1011.07
278.15 K, Pycnometric method, m1 = 0.2732	1012.17
278.15 K, Pycnometric method, m1 = 0.2995	1013.21
278.15 K, Pycnometric method, m1 = 0.3208	1014.01
278.15 K, Pycnometric method, m1 = 0.3529	1015.11
288.15 K, Vibrating tube method, m1 = 0.05	1001.39
288.15 K, Vibrating tube method, m1 = 0.0802	1002.72
288.15 K, Vibrating tube method, m1 = 0.1002	1003.61
288.15 K, Vibrating tube method, m1 = 0.1216	1004.54
288.15 K, Vibrating tube method, m1 = 0.1506	1005.74
288.15 K, Vibrating tube method, m1 = 0.1821	1007.14
288.15 K, Vibrating tube method, m1 = 0.21	1008.37
288.15 K, Vibrating tube method, m1 = 0.2318	1009.27
288.15 K, Vibrating tube method, m1 = 0.2508	1010.04
288.15 K, Vibrating tube method, m1 = 0.2723	1010.95
288.15 K, Vibrating tube method, m1 = 0.3012	1012.17
288.15 K, Vibrating tube method, m1 = 0.3205	1012.97
288.15 K, Vibrating tube method, m1 = 0.3534	1014.37
298.15 K, Vibrating tube method, m1 = 0.0839	1000.75
298.15 K, Vibrating tube method, m1 = 0.1035	1001.57
298.15 K, Vibrating tube method, m1 = 0.1305	1002.87
298.15 K, Vibrating tube method, m1 = 0.1453	1003.51
298.15 K, Vibrating tube method, m1 = 0.185	1005.13
298.15 K, Vibrating tube method, m1 = 0.2073	1005.96
298.15 K, Vibrating tube method, m1 = 0.2401	1007.29
298.15 K, Vibrating tube method, m1 = 0.2727	1008.59
298.15 K, Vibrating tube method, m1 = 0.3029	1009.81
298.15 K, Vibrating tube method, m1 = 0.3177	1010.44
298.15 K, Vibrating tube method, m1 = 0.3535	1011.84
